What was measured:
S. cerevisiae = experiment: Yeast replicative lifespan; assay type: cell-based; conditions: for Average lifespan, growth on resveratrol: wild type untreated 21.0
D. melanogaster = D. melanogaster lifespan; assay type: in vivo
Method: Females (a) and males (b) with loss-of-function genotype dSir2^4.5/dSir2^5.26. Females (c) and males (d) with strong hypomorphic genotype dSir2^17/dSir2^KG00871.
Survival assays were conducted independently with adult D. melanogaster in two laboratories. In the first laboratory, all trials used an yw marked wild-type strain. Larvae were reared on standard cornmeal-sugar-yeast (CSY) agar diet (cornmeal 5%, sucrose 10.5%, SAF yeast 2%, and agar 0.7%). Newly eclosed adults were placed in 1 L demography cages with approximately 75 males and 75 females. Three to four replicate 1 L demography cages were used for each treatment group in each trial. Every two days, dead flies were removed and scored, and food vials were replenished. Food vials contained cornmeal-sugar-yeast diet with SAF yeast as either 2% or 3% by weight. Test compounds in 100 μl of EtOH (or blank EtOH in controls) were mixed into melted aliquots of the adult food media to make a final concentration of 0, 10 or 100 μM. Fresh stock solutions and adult media were prepared weekly. In the second laboratory, lifespan trials were conducted with the wild type strain Canton-S, dSir2^4.5 and dSir2^5.26 (S. Smolik, University of Oregon), dSir2^17 (S. Astrom, Stockholm University, Sweden), and dSir2^KG00871 (Drosophila Stock Center, Bloomington, Ind.). Larvae for all tests were reared on standard cornmeal-sugar-yeast diet. Newly eclosed adults were incubated in plastic shell vials containing 5 ml of 15% sugar-yeast diet (15% SY) or 5% sugar-yeast (5% SY) diet (15% SY: 15% yeast, 15% sucrose, 2% agar; 5% SY: 5% yeast, 5% sucrose, 2% agar as per Ref. ^20). In all trials, ˜20 males with ˜20 females were placed into each of 10 vials/treatment group. Every two days, flies were passed into new vials and dead flies were counted. […] Final compound concentrations were 0, 10, 100 or 200 μM. Fresh stock solution and adult media was prepared weekly.

Oc1ccc(/C=C/c2cc(O)cc(O)c2)cc1 [Resveratrol, 3,5,4′-Trihydroxy-trans-stilbene]
increase of average lifespan (S. cerevisiae; 10 μM): 70% | maximum lifespan (in words) (S. cerevisiae; 10 μM): significantly increased maximum lifespan | Average lifespan (S. cerevisiae; 10 μM compound, 2% glucose medium, wild type untreated 22.9): 36.8 generations | Average lifespan, growth on resveratrol (S. cerevisiae; 10 μM): 35.7 generations | Average lifespan, growth on resveratrol (S. cerevisiae; 100 μM): 29.4 generations | Average lifespan, growth on resveratrol (S. cerevisiae; 500 μM): 29.3 generations | Average lifespan, glucose-restricted+resveratrol (CR+R) (S. cerevisiae; glucose restriction): 39.9 generations | Average lifespan, pnc1Δ+resveratrol (S. cerevisiae; pnc1Δ untreated 19.2): 33.1 generations | Average lifespan, sir2Δ+resveratrol (S. cerevisiae; sir2Δ untreated 9.9): 10.0 generations | Average lifespan, wild type+resveratrol (wt+R) (S. cerevisiae; wild type untreated 19.0): 37.8 generations | increased lifespan (maximum) (D. melanogaster; Canton-S/dSir2^KG0087): up to 17% | lifespan in flies lacking or severely decreased in dSir2 (D. melanogaster; dSir2^4.5/dSir2^5.26 or dSir2^17/dSir2^KG00871, 100 μM): failed to extend lifespan | longevity in flies homozygous for a hypomorphic dSir2 allele (D. melanogaster; dSir2^KG0087/dSir2^KG0087): a small but statistically significant amount | longevity on restricted diet (D. melanogaster; restricted diet): neither resveratrol nor fisetin further increased longevity | lifespan extended (maximum) (D. melanogaster; wild type Canton-S and yw, males and females, normal diet): up to 29%
